Assays:
[1] = system: Rattus norvegicus; test: Anti-hypersensitive activity in MCT-induced pulmonary arterial hypertension Sprague-Dawley rat model assessed as reduction in cardiomyocyte hypertrophy by measuring cardiac fibrosis at 43.3 mg/kg, po administered daily for 14 days starting from 14 days post-MCT challenge and measured post-last dose by Masson's trichrome staining-based microscopic analysis (reference value: 11.74 +/- 3.24 %); type: functional; set-up: scale not given: the % may be the effect or the level left
[2] = system: Rattus norvegicus; test: Hemodynamic activity in Sprague-Dawley rat assessed as effect on right ventricular hypertrophy index at 43.3 mg/kg, po administered daily for 2 weeks by pressure transducer-coupled polygraphy; type: ADME, organism-based; conditions: in vivo, 336 h
[3] = Cmax in Sprague-Dawley rat at 14.4 mg/kg, po by LC-MS/MS analysis; type: ADME, organism-based; set-up: dose 14.4 mg/kg, route oral; conditions: in vivo
[4] = AUC (0 to infinity) in Sprague-Dawley rat at 14.4 mg/kg, po by LC-MS/MS analysis; type: ADME, organism-based; set-up: dose 14.4 mg/kg, time infinity, route oral; conditions: in vivo
[5] = Tmax in Sprague-Dawley rat at 14.4 mg/kg, po by LC-MS/MS analysis; type: ADME, organism-based; conditions: in vivo
[6] = system: Rattus norvegicus; test: Anti-hypersensitive activity in MCT-induced pulmonary arterial hypertension Sprague-Dawley rat model assessed as pulmonary artery medial thickness at 43.3 mg/kg, po administered daily for 14 days starting from 14 days post-MCT challenge and measured post-last dose by hematoxylin and eosin staining-based microscopic analysis (reference value: […] +/- […]); type: functional
[7] = system: Rattus norvegicus; test: Hemodynamic activity in Sprague-Dawley rat assessed as effect on mean pulmonary artery pressure at 43.3 mg/kg, po administered daily for 2 weeks by pressure transducer-coupled polygraphy; type: ADME, organism-based; conditions: in vivo, 336 h
[8] = Plasma concentration in Sprague-Dawley rat assessed as fasudil level at 14.4 mg/kg, po measured at 0.5 hrs by LC-MS/MS analysis; type: ADME, organism-based; conditions: in vivo
[9] = Plasma concentration in Sprague-Dawley rat assessed as fasudil level at 14.4 mg/kg, po measured at 2 hrs by LC-MS/MS analysis; type: ADME, organism-based; conditions: in vivo
[10] = Cardiotoxicity in Sprague-Dawley rat assessed as effect on cross-sectional area of cardiomyocyte at 43.3 mg/kg, po administered daily for 2 weeks by hematoxylin and eosin staining-based microscopic analysis (reference value: 209.53 +/- 26.44 micrometer2); type: toxicity, organism-based; conditions: in vivo, 336 h
[11] = AUMC (0 to t) in Sprague-Dawley rat at 14.4 mg/kg, po by LC-MS/MS analysis; type: ADME, organism-based; conditions: in vivo
[12] = AUMC (0 to infinity) in Sprague-Dawley rat at 14.4 mg/kg, po by LC-MS/MS analysis; type: ADME, organism-based; conditions: in vivo
[13] = Plasma concentration in Sprague-Dawley rat assessed as fasudil level at 14.4 mg/kg, po measured at 1 hr by LC-MS/MS analysis; type: ADME, organism-based; conditions: in vivo
[14] = MRT in Sprague-Dawley rat at 14.4 mg/kg, po by LC-MS/MS analysis; type: ADME, organism-based; conditions: in vivo
[15] = AUC (0 to t) in Sprague-Dawley rat at 14.4 mg/kg, po by LC-MS/MS analysis; type: ADME, organism-based; conditions: in vivo
[16] = system: Rattus norvegicus; test: Anti-hypersensitive activity in MCT-induced pulmonary arterial hypertension Sprague-Dawley rat model assessed as lung fibrosis at 43.3 mg/kg, po administered daily for 14 days starting from 14 days post-MCT challenge and measured post-last dose by Masson's trichrome staining-based microscopic analysis (reference value: 6.12 +/- 1.66%); type: functional
[17] = Elimination rate constant in Sprague-Dawley rat at 14.4 mg/kg, po by LC-MS/MS analysis; type: ADME, organism-based; conditions: in vivo
[18] = Plasma concentration in Sprague-Dawley rat assessed as fasudil level at 14.4 mg/kg, po measured at 0.25 hrs by LC-MS/MS analysis; type: ADME, organism-based; conditions: in vivo
[19] = system: Rattus norvegicus; test: Hemodynamic activity in Sprague-Dawley rat assessed as effect on right ventricular systolic pressure at 43.3 mg/kg, po administered daily for 2 weeks by pressure transducer-coupled polygraphy; type: ADME, organism-based; conditions: in vivo, 336 h
[20] = Plasma concentration in Sprague-Dawley rat assessed as fasudil level at 14.4 mg/kg, po measured at 4 hrs by LC-MS/MS analysis; type: ADME, organism-based; conditions: in vivo
[21] = system: Rattus norvegicus; test: Anti-hypersensitive activity in MCT-induced pulmonary arterial hypertension Sprague-Dawley rat model assessed as right ventricular systolic pressure at 43.3 mg/kg, po administered daily for 14 days starting from 14 days post-MCT challenge and measured post-last dose by pressure transducer-coupled polygraphy (reference value: 59.06 +/- 3.26 mmHg); type: functional
[22] = system: Rattus norvegicus; test: Anti-hypersensitive activity in MCT-induced pulmonary arterial hypertension Sprague-Dawley rat model assessed as reduction in cardiomyocyte hypertrophy by measuring cross-sectional area of cardiomyocyte at 43.3 mg/kg, po administered daily for 14 days starting from 14 days post-MCT challenge and measured post-last dose by hematoxylin and eosin staining-based microscopic analysis (reference value: 418 +/- 50.88 micrometer2); type: functional
[23] = system: Rattus norvegicus; test: Hemodynamic activity in Sprague-Dawley rat assessed as effect on mean systemic arterial pressure at 43.3 mg/kg, po administered daily for 2 weeks by pressure transducer-coupled polygraphy; type: ADME, organism-based; conditions: in vivo, 336 h
[24] = Cardiotoxicity in Sprague-Dawley rat assessed as cardiac fibrosis at 43.3 mg/kg, po administered daily for 2 weeks by hematoxylin and eosin staining-based microscopic analysis (reference value: 2.99 +/- 1.34 %); type: toxicity, organism-based; conditions: in vivo, 336 h
[25] = system: Rattus norvegicus; test: Anti-hypersensitive activity in MCT-induced pulmonary arterial hypertension Sprague-Dawley rat model assessed as mean pulmonary artery pressure at 43.3 mg/kg, po administered daily for 14 days starting from 14 days post-MCT challenge and measured post-last dose by pressure transducer-coupled polygraphy (reference value: 36 +/- 2.83 mmHg); type: functional

Compound: O=C(O)C(Cl)Cl.O=S(=O)(c1cccc2cnccc12)N1CCCNCC1
- Activity [1]: 3.69%
- Activity [2]: Non-Toxic
- Cmax [3]: 113 ng/mL
- AUC(0-inf) [4]: 117 ng·h/mL
- Tmax [5]: 15 min
- Activity [6]: 0.2
- Activity [7]: Non-Toxic
- Cp [8]: 55.5 ng/mL
- Cp [9]: 18.4 ng/mL
- Activity [10]: 190.6 um2
- AUMCt [11]: 119 hr.hr.ng/ml
- AUMC [12]: 160 hr.hr.ng/ml
- Cp [13]: 38 ng/mL
- MRT [14]: 77.4 min
- AUC(0-t) [15]: 109 ng·h/mL
- Activity [16]: 6.12%
- k el [17]: 0.000219 s⁻¹
- Cp [18]: 113 ng/mL
- Activity [19]: Non-Toxic
- Cp [20]: 4.46 ng/mL
- Activity [21]: 49.54 mmHg
- Activity [22]: 282.4 um2
- Activity [23]: Non-Toxic
- Activity [24]: 2.25%
- Activity [25]: 25.67 mmHg

From ChEMBL document CHEMBL4340557, “Fasudil dichloroacetate (FDCA), an orally available agent with potent therapeutic efficiency on monocrotaline-induced pulmonary arterial hypertension rats” (Bioorg Med Chem Lett, 2019)
